Biological target: T1, MEK (Homo sapiens, UniProt Q02750)
T1 construct: no tag is given for the 2D mutant
Test: in vitro MEK assay
Type: biochemical
Description: For evaluation of direct MEK activity, 10 μg GST-MEK, is incubated in the presence of absence of test compound with 5 μg of a glutathione S-transferase fusion protein containing p44MAP kinase with a lysine to alanine mutation at position 71 (GST-MAPK-KA). This mutation eliminates kinase activity of MAPK, so only kinase activity attributed to the added MEK remains. Incubations are 15 minutes at 30° C. in a final volume of 50 μL containing 50 mM Tris (pH 7.5), […], 2, μM EGTA, and 10 μM [γ-^32P]ATP. The reaction is stopped by addition of Laemmli SDS sample buffer. Phosphorylated GST-MAPK-KA is resolved by electrophoresis on a 10% polyacrylamide gel. Radioactivity incorporated into GST-MAPK-KA is determined by autoradiography, and subsequent scintillation counting of excised bands.
Alternatively, an artificially activated MEK containing serine to glutamate mutations at positions 218 and 222 (GST-MEK-2E) is used. When these two sites are phosphorylated, MEK activity is increased. Phosphorylation of these sites can be mimicked by mutation of the serine residues to glutamate. For this assay, 5 μg GST-MEK-2E is incubated with 5 μg GST-MAPK-KA for 15 minutes at 30° C. in the same reaction buffer as described above. Reactions are terminated and analyzed as above.

T1 sequence (Q02750 whole entry S218D/S222D, form open): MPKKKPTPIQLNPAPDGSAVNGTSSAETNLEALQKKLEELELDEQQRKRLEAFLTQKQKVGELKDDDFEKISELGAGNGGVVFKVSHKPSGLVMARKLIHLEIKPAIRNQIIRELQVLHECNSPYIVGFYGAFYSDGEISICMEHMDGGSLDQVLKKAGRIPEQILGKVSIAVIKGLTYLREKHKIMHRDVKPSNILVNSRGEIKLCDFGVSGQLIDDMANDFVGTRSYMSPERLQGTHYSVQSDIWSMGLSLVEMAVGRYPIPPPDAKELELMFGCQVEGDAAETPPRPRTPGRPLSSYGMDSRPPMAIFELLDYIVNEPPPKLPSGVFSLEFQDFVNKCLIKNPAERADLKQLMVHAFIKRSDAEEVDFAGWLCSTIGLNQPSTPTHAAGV

SMILES	in vitro MEK assay: % inhibition @ 1 μM	IC50
Cc1cc(I)ccc1N1COC(=O)c2cc(C(=O)NC3CCCC[C@@H]3O)c(F)c(F)c21 (stereo in doubt) [Example 60, 7,8-difluoro-1-(4-iodo-2-methyl-phenyl)-4-oxo-1,4-dihydro-2H-3,1-benzoxazine-6-carboxylic acid ((S)-2-hydroxy-cyclohexyl)-amide]	30%	–
Cc1cc(I)ccc1N1COC(=O)c2cc(C(=O)N(C)C)c(F)c(F)c21 [Example 5, 7,8-Difluoro-1-(4-iodo-2-methyl-phenyl)-4-oxo-1,4-dihydro-2H-benzo[d][1,3]oxazine-6-carboxylic acid dimethylamide]	–	5.8 µM
Cc1cc(I)ccc1N1COC(=O)c2cc(C(=O)N3CC[C@@H](O)C3)c(F)c(F)c21 [Example 8, 7,8-Difluoro-6-((R)-3-hydroxy-pyrrolidine-1-carbonyl)-1-(4-iodo-2-methyl-phenyl)-1,2-dihydro-3,1-benzoxazin-4-one]	34%	–
COC[C@@H]1CCCN1C(=O)c1cc2c(c(F)c1F)N(c1ccc(I)cc1C)COC2=O [Example 9, 7,8-Difluoro-1-(4-iodo-2-methyl-phenyl)-6-((S)-2-methoxymethyl-pyrrolidine-1-carbonyl)-1,2-dihydro-3,1-benzoxazin-4-one]	93%	–
Cc1cc(I)ccc1N1COC(=O)c2cc(C(=O)NCCN3CCCCC3)c(F)c(F)c21 [Example 10, 7,8-Difluoro-1-(4-iodo-2-methyl-phenyl)-4-oxo-1,4-dihydro-2H-3,1-benzoxazine-6-carboxylic acid (2-piperidin-1-yl-ethyl)-amide]	44%	–
Cc1cc(I)ccc1N1COC(=O)c2cc(C(=O)NCCN3CCCC3)c(F)c(F)c21 [Example 11, 7,8-Difluoro-1-(4-iodo-2-methyl-phenyl)-4-oxo-1,4-dihydro-2H-3,1-benzoxazine-6-carboxylic acid (2-pyrrolidin-1-yl-ethyl)-amide]	33%	–
Cc1cc(I)ccc1N1COC(=O)c2cc(C(=O)NCCCN3CCCC3=O)c(F)c(F)c21 [Example 12, 7,8-Difluoro-1-(4-iodo-2-methyl-phenyl)-4-oxo-1,4-dihydro-2H-3,1-benzoxazine-6-carboxylic acid [3-(2-oxo-pyrrolidin-1-y)-propyl]-amide]	21%	–
Cc1cc(I)ccc1N1COC(=O)c2cc(C(=O)NCC3(O)CCCCC3)c(F)c(F)c21 [Example 13, 7,8-Difluoro-1-(4-iodo-2-methyl-phenyl)-4-oxo-1,4-dihydro-2H-3,1-benzoxazine-6-carboxylic acid (1-hydroxy-cyclohexylmethyl)-amide]	23%	–
Cc1cc(I)ccc1N1COC(=O)c2cc(C(=O)N3CCN(C=O)CC3)c(F)c(F)c21 [Example 15, 4-[7,8-Difluoro-1-(4-iodo-2-methyl-phenyl)-4-oxo-1,4-dihydro-2H-3,1-benzoxazine-6-carbonyl]-piperazine-1-carbaldehyde]	13%	–
Cc1cc(I)ccc1N1COC(=O)c2cc(C(=O)N(C)C3CCN(C)CC3)c(F)c(F)c21 [Example 16]	0%	–
Cc1cc(I)ccc1N1COC(=O)c2cc(C(=O)N3CCN(C)CC3)c(F)c(F)c21 [Example 17]	78%	–
Cc1cc(I)ccc1N1COC(=O)c2cc(C(=O)NCCOCCO)c(F)c(F)c21 [Example 18, 7,8-Difluoro-1-(4-iodo-2-methyl-phenyl)-4-1,4-dihydro-2H-3,1-benzoxazine-6-carboxylic acid [2-(2-hydroxy-ethoxy)-ethyl]-amide]	43%	–
Cc1cc(I)ccc1N1COC(=O)c2cc(C(=O)NCCC3CCCN3C)c(F)c(F)c21 (centres unmarked) [Example 19, 7,8-Difluoro-1-(4-iodo-2-methyl-phenyl)-4-oxo-1,4-dihydro-2H-3,1-benzoxazine-6-carboxylic acid [2-(1-methyl-pyrrolidin-2-yl)ethyl]-amide]	28%	–
Cc1cc(I)ccc1N1COC(=O)c2cc(C(=O)N(C)CCO)c(F)c(F)c21 [Example 20, 7,8-Difluoro-1-(4-iodo-2-methyl-phenyl)-4-oxo-1,4-dihydro-2H-3,1-benzoxazine-6-carboxylic acid (2-hydroxy-ethyl)-methyl-amide]	41%	–
Cc1cc(I)ccc1N1COC(=O)c2cc(C(=O)Nc3nncs3)c(F)c(F)c21 [Example 21, 7,8-Difluoro-1-(4-iodo-2-methyl-phenyl)-oxo-1,4-dihydro-2H-3,1-benzoxazine-6-carboxylic acid 1,3,4-thiadiazol-2-ylamide]	31%	–
COCC(C)NC(=O)c1cc2c(c(F)c1F)N(c1ccc(I)cc1C)COC2=O (centres unmarked) [Example 22, 7,8-Difluoro-1-(4-iodo-2-methyl-phenyl)-4-oxo-1,4-dihydro-2H-3,1-benzoxazine-6-carboxylic acid (2-methoxy-1-methyl-ethyl)-amide]	46%	–
Cc1cc(I)ccc1N1COC(=O)c2cc(C(=O)Nc3nc4c(C)cccc4s3)c(F)c(F)c21 [Example 23, 7,8-Difluoro-1-(4-iodo-2-methyl-phenyl)-4-oxo-1,4-dihydro-2H-3,1-benzoxazine-6-carboxylic acid (4-methyl-benzothiazol-2-yl)-amide]	26%	–
Cc1csc(NC(=O)c2cc3c(c(F)c2F)N(c2ccc(I)cc2C)COC3=O)n1 [Example 24, ,8-Difluoro-1-(4-iodo-2-methyl-phenyl)-4-oxo-1,4dihydro-2H-3,1-benzoxazine-6-carboxylic acid (4-methyl-thiazol-2-yl)-amide]	20%	–
CCSc1nnc(NC(=O)c2cc3c(c(F)c2F)N(c2ccc(I)cc2C)COC3=O)s1 [Example 25, 7,8-Difluoro-1-(4-iodo-2-methyl-phenyl)-4-oxo-1,4-dihydro-2H-3,1-benzoxazine-6-carboxylic acid (5-ethylsulfanyl-1,3,4-thiadiazol-2-yl)-amide]	5%	–
CCc1nnc(NC(=O)c2cc3c(c(F)c2F)N(c2ccc(I)cc2C)COC3=O)s1 [Example 26, 7,8-Difluoro-1-(4-iodo-2-methyl-phenyl)-4-oxo-1,4-dihydro-2H-3,1-benzoxazine-6-carboxylic acid (5-ethyl-1,3,4-thiadiazol-2-yl)-amide]	20%	–
Cc1cc(I)ccc1N1COC(=O)c2cc(C(=O)Nc3nnc(S)s3)c(F)c(F)c21 [Example 27, 7,8-Difluoro-1-(4-iodo-2-methyl-phenyl)-4-oxo-1,4-dihydro-2H-3,1-benzoxazine-6-carboxylic acid (5-mercapto-1,3,4-thiadiazol-2-yl)-amide]	27%	–
CCOc1ccc2nc(NC(=O)c3cc4c(c(F)c3F)N(c3ccc(I)cc3C)COC4=O)sc2c1 [Example 28, 7,8-Difluoro-1-(4-iodo-2-methyl-phenyl)-4-oxo-1,4-dihydro-2H-3,1-benzoxazine-6-carboxylic acid (6-ethoxy-benzothiazol-2-yl)-amide]	9%	–
Cc1cc(I)ccc1N1COC(=O)c2cc(C(=O)Nc3nc4ccccc4s3)c(F)c(F)c21 [Example 29, 7,8-Difluoro-1-(4-iodo-2-methyl-phenyl)-4-oxo-1,4-dihydro-2H-3,1-benzoxazine-6-carboxylic acid benzothiazol-2-ylamide]	21%	–
Cc1cc(I)ccc1N1COC(=O)c2cc(C(=O)Nc3ccccc3CCO)c(F)c(F)c21 [Example 30, 7,8-Difluoro-1-(4-iodo-2-methyl-phenyl)-4-oxo-1,4-dihydro-2H-3,1-benzoxazine-6-carboxylic acid [2-(2-hydroxy-ethyl)-phenyl]-amide]	55%	–
Cc1cc(I)ccc1N1COC(=O)c2cc(C(=O)Nc3nccs3)c(F)c(F)c21 [Example 31, 7,8-Difluoro-1-(4-iodo-2-methyl-phenul)-4-oxo-1,4-dihydro-2H-3,1-benzoxazine-6-carboxylic acid thiazol-2-ylamide]	32%	–
Cc1cc(I)ccc1N1COC(=O)c2cc(C(=O)N3CCCCC3CCO)c(F)c(F)c21 (centres unmarked) [Example 32, 7,8-Difluoro-6-[2-(2-hydroxy-ethyl)-piperidine-1-carbonyl]-1-(4-iodo-2-methyl-phenyl)-1,2-dihydro-3,1-benzoxazin-4-one]	76%	–
Cc1cc(I)ccc1N1COC(=O)c2cc(C(=O)N3CCCCC3CO)c(F)c(F)c21 (centres unmarked) [Example 33, 7,8-Difluoro-6-(2-hydroxymethyl-piperidine-1-carbonyl)-1-(4-iodo-2-methyl-phenyl)-1,2-dihydro-3,1-benzoxazin-4-one]	79%	–
CCOC(=O)c1c[nH]nc1NC(=O)c1cc2c(c(F)c1F)N(c1ccc(I)cc1C)COC2=O [Example 34, 3-{[7,8-Difluoro-1-(4-iodo-2-methyl-phenyl)-4-oxo-1,4-dihydro-2H-3,1-benzoxazine-6-carbonyl]-amino}-1H-pyrazole-4-carboxylic acid ethyl ester]	72%	–
CSc1nc(NC(=O)c2cc3c(c(F)c2F)N(c2ccc(I)cc2C)COC3=O)n[nH]1 [Example 35, 7,8-Difluoro-1-(4-iodo-2-methyl-phenyl)-4-oxo-1,4-dihydro-2H-3,1-benzoxazine-6-carboxylic acid (5-methylsulfanyl-1H-1,2,4-triazol-3-yl)-amide]	76%	–
